Assay results reported in ChEMBL document CHEMBL4813999, “Mur ligases inhibitors with azastilbene scaffold: Expanding the structure-activity relationship” (Bioorg Med Chem Lett, 2021).
≈ marks a conversion by molar mass, not a printed value.

Assays:
[1] = Inhibition of MurF (unknown origin)
[2] = Inhibition of MurD (unknown origin)
[3] = Inhibition of MurC (unknown origin)
[4] = Inhibition of MurC (unknown origin) at 100 uM relative to control
[5] = Inhibition of MurD (unknown origin) at 100 uM relative to control
[6] = Inhibition of MurE (unknown origin) at 100 uM relative to control
[7] = Inhibition of MurF (Unknown origin) at 100 uM relative to control
Staphylococcus aureus = assay: Antibacterial activity against Staphylococcus aureus ATCC 29213 assessed as inhibition of bacterial growth; format: functional
Escherichia coli = assay: Antibacterial activity against Escherichia coli ATCC 25922 assessed as inhibition of bacterial growth; format: functional
[8] = Inhibition of MurE (unknown origin)

Structure (SMILES)	IC50 [1] [µM]	IC50 [2] [µM]	IC50 [3] [µM]	inhibition [4] [%]	inhibition [5] [%]	inhibition [6] [%]	inhibition [7] [%]	MIC (Staphylococcus aureus) [µM]	MIC (Escherichia coli) [µM]	IC50 [8] [µM]
Cc1cc(-c2cccc(CO)c2)cc(C)c1/C=C/c1cncc(-c2nnn[nH]2)c1	–	–	–	25	14	23	24	> 250	> 250	–
Cc1cc(-c2cccc(C(=O)O)c2)cc(C)c1/C=C/c1cncc(-c2nnn[nH]2)c1	–	–	–	33	26	39	18	> 250	> 250	–
Cc1cc(-c2cccnc2)cc(C)c1/C=C/c1cncc(-c2nn[nH]n2)c1	–	–	–	10	10	4	0	> 250	> 250	–
Cc1cc(N2CCCC2)cc(C)c1/C=C/c1cncc(-c2nnn[nH]2)c1	–	–	–	22	1	16	29	250 (≈ 86.6 µg/mL)	> 250	–
Cc1cc(Br)cc(C)c1/C=C/c1cncc(-c2nnn[nH]2)c1	–	131	–	30	46	38	32	250 (≈ 89.1 µg/mL)	> 250	–
Cc1cc(-c2ccncc2)cc(C)c1/C=C/c1cncc(-c2nnn[nH]2)c1	–	–	–	14	9	19	15	> 250	> 250	–
COc1ccccc1-c1cc(C)c(/C=C/c2cncc(-c3nnn[nH]3)c2)c(C)c1	–	104	–	35	42	33	0	125 (≈ 47.9 µg/mL)	> 250	–
Cc1cc(N2CCCCC2=O)cc(C)c1/C=C/c1cncc(-c2nnn[nH]2)c1	–	–	–	15	14	30	38	> 250	> 250	–
Cc1cc(-c2ccoc2)cc(C)c1/C=C/c1cncc(-c2nnn[nH]2)c1	–	–	–	16	22	18	12	> 250	> 250	–
COC(=O)c1cccc(-c2cc(C)c(/C=C/c3cncc(-c4nnn[nH]4)c3)c(C)c2)c1	–	–	–	15	16	23	16	> 250	> 250	–
COc1ccc(-c2cc(C)c(/C=C/c3cncc(-c4nnn[nH]4)c3)c(C)c2)cc1	–	–	–	30	30	37	25	250 (≈ 95.9 µg/mL)	> 250	–
Cc1cc(-c2ccco2)cc(C)c1/C=C/c1cc(-c2nnn[nH]2)ccn1	17	56	–	23	73	55	84	> 250	> 250	97
Cc1cc(-c2ccco2)cc(C)c1/C=C/c1cccc(-c2nnn[nH]2)c1	–	107	–	5	64	30	21	> 250	> 250	–
COc1cccc(-c2cc(C)c(/C=C/c3cncc(-c4nnn[nH]4)c3)c(C)c2)c1	–	–	–	15	23	21	18	> 250	> 250	–

Results, then the compound that gave them:

IC50 [1] [µM]	IC50 [2] [µM]	IC50 [3] [µM]	inhibition [4] [%]	inhibition [5] [%]	inhibition [6] [%]	inhibition [7] [%]	MIC (Staphylococcus aureus) [µM]	MIC (Escherichia coli) [µM]	IC50 [8] [µM]	Structure (SMILES)
144	126	153	44	45	32	44	125 (≈ 43.1 µg/mL)	> 250	–	Cc1cc(-c2ccco2)cc(C)c1/C=C/c1cncc(C2=NCCO2)c1
71	85	82	56	70	46	58	> 250	> 250	150	Cc1cc(-c2ccco2)cc(C)c1/C=C/c1cncc(C2=NCCS2)c1
–	–	–	22	27	35	21	> 250	> 250	–	Cc1cc(-c2ccco2)cc(C)c1/C=C/c1cncc(C#N)c1
201	160	151	42	47	10	40	31 (≈ 10.6 µg/mL)	250 (≈ 85.9 µg/mL)	–	Cc1cc(-c2ccco2)cc(C)c1/C=C/c1cncc(C2=NCCN2)c1
59	104	–	30	55	51	74	> 250	> 250	79	Cc1cc(-c2ccco2)cc(C)c1/C=C/c1cncc(-c2nn[nH]n2)c1
109	64	153	43	70	27	47	> 250	> 250	–	Cc1cc(-c2ccco2)cc(C)c1/C=C/c1cncc(C(=O)O)c1
31	168	–	20	40	51	76	> 250	> 250	156	Cc1cc(-c2ccco2)cc(C)c1/C=C/c1cncc(C(N)=O)c1
